Test results reported in patent US8158577B2, “Modulation of cartilage homeostasis by active domains of cell binding extracellular matrix molecules” (priority 2004, dated 2012).
“Also recorded” adds a separate entry of the source.

How the values were obtained:
K105 cells = test: Adhesion of K105 cells to chondroadherin in the presence of synthetic peptide (FIG. 3, 5A-5B, 13); type: cell-based, human; details: peptide 250 μg/ml
Method: Human cells (K9) originating from a human chondrosarcoma were a kind gift from Drs. Sven Inerot and Anders Lindahl, The Salgrenska University Hospital Gothenburg, Sweden. The K9 cells were cultured in Dulbeccos Modified Eagle Medium: Nutrient Mixture F12 (DMEM/F12 1:1) with GLUTAMAX I, supplemented with 10% fetal calf serum, 25 μg/ml ascorbic acid, 50 IU of penicillin and 50 μg/ml streptomycin (Life Technologies, Inc.). A different human cells line (K105) originating from a human chondrosarcoma was a kind gift from Dr. Sven Inerot, The Salgrenska University Hospital, Gothenburg, Sweden. The K105 cells were cultured in a mix of 40% Dulbeccos Modified Eagle Medium, 40% Minimum Essential Media (MEM) alpha Medium, 10% Nutrient Mixture F1 supplemented with 100 nM hydrocortisone, 100 ng/ml insulin, 10% fetal calf serum, 25 μg/ml ascorbic acid, 50 IU of penicillin and 50 μg/ml streptomycin (Life Technologies, Inc.). To harvest cells, culture dishes were rinsed three times with Ca^2+/Mg^2+-free PBS and the cells were incubated with 0.5% trypsin and 1 mM EDTA for 5 min. Detached cells were suspended in PBS containing 1 mg/ml trypsin inhibitor (Sigma) and then washed in PBS. To remove membrane-bound collagens the cells were treated with collagenase 100 U/ml (CLSPA; Worthington Biochemical Corp., Lakewood, N.J.) in PBS, 30 min. 37° C. and then washed in PBS.
Tissue culture 48-wells dishes (Nunclon, Nunc, Denmark) were coated overnight with 5 μg/ml chondroadherin in 4M Guanidine-HCl, 50 mM sodium acetate, pH 5.8, or for native protein in PBS. Alternatively coating was with 5 μg/ml collagen type II in PBS followed by after-coating with 0.5% BSA in PBS for 3 hours. Collagen type II was isolated from bovine nasal cartilage by pepsin digestion (11). Bacterially expressed chondroadherin was isolated as described above. Recombinant chondroadherin expressed in EBNA cell was cloned and purified as described elsewhere (8).
To test cell binding, the chondrosarcoma cells or bovine chondrocytes were suspended in PBS containing 0.1% BSA, 25 U/ml collagenase and added to the wells (50,000/well), in the absence or presence of various peptide pools or the synthetic peptides (200, 100, 50, 25, 12.5 μg/ml). Non-adherent cells were removed after 1 hour and adhesion was determined by measuring lysosomal N-acetylglucosaminidase (12). Adhesion and spreading was visualized by light microscopy. In the time studies, k105 cells were allowed to adhere for 30 minutes, unbound cells were removed and medium without serum supplemented with or without peptides (250 μg/ml), β1 integrin antibody (clone P4C10, Gibco BRL), EDTA (5 mM) was added. Cell morphology was visualized by light microscopy after 1, 3 and 20 hours.
Study design: Tissue culture dishes (48-wells) were coated with 5 μg/ml chondroadherin expressed in E. coli and blocked for non-specific binding with BSA. […] were suspended in PBS containing 0.1% BSA, 25 U/ml collagenase and added to the wells (50,000/well) in the presence of synthetic peptide to be tested and allowed to adhere for 1 hour at 37° C. Nonadherent cells were removed by washing, and adhesion was determined by analyzing lysosomal hexosaminidase.
A 12-mer peptide (1947.01) plus an N-terminal cysteine (CQLRGLRRWLEAK) (SEQ ID NO. 3) representing the candidate sequence identified by mass spectrometry were synthesized and its ability to inhibit cell adhesion was determined. Tissue culture dishes were coated with 5 μg/ml chondroadherin expressed in E. coli and blocked for non-specific binding with BSA. The cells were suspended in PBS containing 0.1% BSA, 25 U/ml collagenase and added to the wells (50,000/well) in the presence of synthetic peptide (200, 100, 50, 25, 12.5 μg/ml) and allowed to adhere for 1 hour at 37° C. Nonadherent cells were removed by washing, and adhesion was determined by analyzing lysosomal hexosaminidase. […]

[1] = Heparin binding on Heparin-Sepharose; details: eluted with NaCl (0.5, 1, 2M); Western blot or MALDI-TOF MS
Method: Intact recombinant protein (10 μg, EBNA-cell expressed) diluted in PBS was passed over Heparin-Sepharose (Amersham Pharmacia) (1 ml), washed with 20 volumes of PBS and eluted with 2 M NaCl (6×1 ml). Eluted material was precipitated with ethanol, separated by SDS-PAGE (10%) and visualized by western blot (CHAD ab α-80, Larsson et al). The peptide CKFPTKRSKKAGRH (SEQ ID No:7) was diluted in PBS and passed over heparin-sepharose (100 μl), the column was washed with 20 volumes PBS and bound material eluted with 0.5, 1, and 2M NaCl (3 column volumes of each).
Recombinant chondroadherin (10 or 100 μg) expressed in EBNA-cells was passed over Heparin-Sepharose-column (Pharmacia). The column was washed and eluted with 2M NaCl in PBS. Eluted material was separated on SDS-PAGE (10%) and detected by western blot using a chondroadherin antibody (see FIG. 4). The band at 36 kDa represents chondroadherin ant the band at 72 kDa represents a dimer of chondroadherin.
The candidate peptide CKFPTKRSKKAGRH (SEQ ID No: 7) was synthesized. The ability of the peptide to bind heparin was confirmed on heparin-sepharose, where material eluted with 0.5, 1 and 2M NaCl was identified by MALDI-TOF MS (data not shown).

binding to heparin-sepharose [1]: confirmed; also recorded: bind heparin
Substance: H-CKFPTKRSKKAGRH-OH [SEQ ID No. 7]
k105 cell adhesion to chondroadherin in the presence of peptide (K105 cells; 1 hour at 37° C.): increased | k105 cell spreading on chondroadherin in the presence of peptide (K105 cells; 1 hour, light microscopy): increased
